Laboratory results published in patent publication US20230141101A1, “PDE4 INHIBITOR COMPOUND AND MEDICAL USE THEREOF” (Suzhou Longbotai Pharmaceuticals Co., Ltd., priority 2020, published 2023).

Tests used:
Format in all cases: biochemical
PDE4A1A = target: T1, PDE4A1A (Homo sapiens, UniProt P27815); test: PDE4 inhibitory activity assay (FAM-cAMP enzymatic reaction), PDE4A1A
T1 construct: purchased BPS 60040
Experimental: (§1) The compounds of the present disclosure were tested for their inhibitory activity (IC50 value) against PDE4A1A, PDE4B1, and PDE4D2.
(§2) Positive compound: Trequinsin (Sigma, Cat No. T20S7).
(§3) Instrument: Wallac Victor Muti-lable counter (Pekin Elmer) Steps of assay:
(§4) PDE enzymatic reaction; • 1) PDE was dissolved in 1× reaction solution to prepare 2× enzyme solution; • 2) FAM-cAMP was dissolved in 1× reaction solution to prepare 2× substrate solution; • 3) Corresponding volume of the compound in DMSO was transferred to the reaction plate through Echo 550; • 4) 2× enzyme solution was added into the corresponding wells of the reaction plate and incubated with the compound solution for 15 minutes at room temperature; • 5) 2× substrate solution was added into the corresponding well of the reaction plate to initiate the reaction; • 6) After the reaction plate was incubated at room temperature for 30 min, the reaction was terminated by adding reaction stopping solution. The reaction plate was incubated at room temperature for another 60 minutes;
(§5) Inhibition rates were calculated with Excel; and IC50 for each compound was calculated with Graphpad prism.

PDE4B1 = target: T2, PDE4B1 (Homo sapiens, UniProt Q07343); test: PDE4 inhibitory activity assay (FAM-cAMP enzymatic reaction), PDE4B1; conditions: 20 nM
T2 construct: purchased BPS 60041
Experimental: as §1, §2, §3, §4, §5

PDE4D2 = PDE4D2 (Homo sapiens, UniProt Q08499); test: PDE4 inhibitory activity assay (FAM-cAMP enzymatic reaction), PDE4D2; conditions: for IC50: read-out: PDE4 D2 inhibitory activity (IC50 value)
Experimental: as §1, §2, §3, §4, §5

[1] = compared with Apremilast and Example 11 of WO2018036470 (WX011)

Chain of PDE4D2 (Q08499 303-809): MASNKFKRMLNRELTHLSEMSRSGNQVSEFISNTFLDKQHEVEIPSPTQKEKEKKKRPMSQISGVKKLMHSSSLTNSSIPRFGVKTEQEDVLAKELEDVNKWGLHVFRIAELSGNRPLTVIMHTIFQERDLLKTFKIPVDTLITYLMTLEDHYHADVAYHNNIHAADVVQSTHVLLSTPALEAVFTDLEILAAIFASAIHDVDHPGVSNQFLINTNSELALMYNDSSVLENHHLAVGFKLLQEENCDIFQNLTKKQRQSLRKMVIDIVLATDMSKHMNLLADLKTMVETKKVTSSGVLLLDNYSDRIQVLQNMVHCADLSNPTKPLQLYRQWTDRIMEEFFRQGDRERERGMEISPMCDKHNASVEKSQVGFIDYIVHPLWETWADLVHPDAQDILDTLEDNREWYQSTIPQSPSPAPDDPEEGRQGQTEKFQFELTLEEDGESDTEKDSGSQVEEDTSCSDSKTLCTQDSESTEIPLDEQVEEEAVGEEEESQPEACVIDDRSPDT
T2 sequence (Q07343 whole entry): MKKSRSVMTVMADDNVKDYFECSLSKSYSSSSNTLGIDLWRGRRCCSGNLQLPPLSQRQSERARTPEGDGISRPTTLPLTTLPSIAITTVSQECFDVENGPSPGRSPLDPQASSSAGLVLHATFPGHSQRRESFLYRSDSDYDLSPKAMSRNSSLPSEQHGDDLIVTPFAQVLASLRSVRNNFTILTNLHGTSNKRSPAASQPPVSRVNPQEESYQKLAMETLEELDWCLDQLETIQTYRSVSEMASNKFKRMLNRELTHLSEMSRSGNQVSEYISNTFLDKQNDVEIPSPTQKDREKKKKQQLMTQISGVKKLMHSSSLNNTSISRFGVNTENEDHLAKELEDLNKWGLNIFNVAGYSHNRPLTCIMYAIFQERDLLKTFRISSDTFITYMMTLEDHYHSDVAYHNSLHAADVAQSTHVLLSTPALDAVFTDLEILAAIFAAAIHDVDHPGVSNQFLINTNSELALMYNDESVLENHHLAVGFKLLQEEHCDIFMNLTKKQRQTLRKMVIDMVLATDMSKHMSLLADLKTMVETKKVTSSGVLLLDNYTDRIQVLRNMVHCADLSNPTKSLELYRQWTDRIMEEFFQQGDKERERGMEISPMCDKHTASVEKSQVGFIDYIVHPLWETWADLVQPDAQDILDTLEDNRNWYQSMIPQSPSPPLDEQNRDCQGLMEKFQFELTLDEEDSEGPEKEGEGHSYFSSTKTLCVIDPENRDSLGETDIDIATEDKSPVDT
T1 sequence (P27815 1-647 isoform P27815-4): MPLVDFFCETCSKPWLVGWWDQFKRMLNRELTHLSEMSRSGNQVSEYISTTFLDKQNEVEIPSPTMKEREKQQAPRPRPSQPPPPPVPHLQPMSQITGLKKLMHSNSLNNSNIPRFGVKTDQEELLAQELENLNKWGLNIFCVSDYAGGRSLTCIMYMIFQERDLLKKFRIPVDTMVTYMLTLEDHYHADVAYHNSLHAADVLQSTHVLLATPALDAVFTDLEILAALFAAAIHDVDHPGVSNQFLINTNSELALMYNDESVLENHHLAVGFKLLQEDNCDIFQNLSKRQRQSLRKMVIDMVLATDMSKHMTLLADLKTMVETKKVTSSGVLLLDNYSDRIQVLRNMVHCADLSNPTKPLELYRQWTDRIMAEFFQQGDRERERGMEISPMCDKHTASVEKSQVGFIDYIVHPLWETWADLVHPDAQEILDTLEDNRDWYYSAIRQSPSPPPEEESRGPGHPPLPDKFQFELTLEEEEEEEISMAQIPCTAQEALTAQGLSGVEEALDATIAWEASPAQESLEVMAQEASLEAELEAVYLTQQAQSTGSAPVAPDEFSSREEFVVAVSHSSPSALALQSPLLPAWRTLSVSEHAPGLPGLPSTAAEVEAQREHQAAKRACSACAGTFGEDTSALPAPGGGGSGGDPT

Row | Structure (SMILES) | PDE4 A1 inhibitory effect at 20 nM (PDE4A1A) | PDE4 B1 inhibitory effect at 20 nM (PDE4B1) | PDE4 D2 inhibitory effect at 20 nM (PDE4D2) | IC50 (PDE4D2) [nM] | inhibitory activity against PDE4A1A compared with Apremilast and WX011 (PDE4A1A; [1]) | inhibitory activity against PDE4D2 compared with Apremilast and WX011 (PDE4D2; [1])
1 | CCOc1nc([C@@H](CS(C)(=O)=O)n2c(=O)n(C)c3cc(-c4ccccn4)ccc32)ccc1OC [Ex. 196, (S)-1-(1-(6-ethoxy-5-methoxypyridin-2-yl)-2-(methylsulfonyl)ethyl)-3-methyl-5-(pyridin-2-yl)-1H-benzo[d]imidazol-2(3H)-one] | + | + | + |  |  | 
2 | CCOc1nc([C@@H](CS(C)(=O)=O)n2c(=O)n(C)c3cc(-c4cc(C)ccc4F)ccc32)ccc1OC [Ex. 176, (S)-5-(2-fluoro-5-methylphenyl)-1-(1-(6-ethoxy-5-methoxypyridin-2-yl)-2-(methylsulfonyl)ethyl)-3-methyl-1H-benzo[d]imidazol-2(3H)-one] | + | + | + |  |  | 
3 | CCOc1nc([C@@H](CS(C)(=O)=O)N2Cc3cccc(NC(C)=O)c3C2=O)ccc1OC [Ex. 215, (S)—N-(2-(1-(6-ethoxy-5-methoxypyridin-2-yl)-2-(methylsulfonyl)ethyl)-3-oxoisoindolin-4-yl)acetamide] | + | + | + |  |  | 
4 | CCOc1nc([C@@H](CS(C)(=O)=O)n2c(=O)[nH]c3c(C)c(-c4ccccc4)cnc32)ccc1OC(F)F [Ex. 61, (S)-3-(1-(5-(difluoromethoxy)-6-ethoxypyridin-2-yl)-2-(methylsulfonyl)ethyl)-7-methyl-6-phenyl-1H-imidazo[4,5-b]pyridin-2(3H)-one] | + | + | + |  |  | 
5 | CCOc1nc([C@H](CS(C)(=O)=O)n2c(=O)[nH]c3cc(-c4ccccc4C)ccc32)ccc1OC [Ex. 141, (R)-1-(1-(6-ethoxy-5-methoxypyridin-2-yl)-2-(methylsulfonyl)ethyl)-5-(o-methylphenyl)-1H-benzo[d]imidazol-2(3H)-one] | + | + | + |  |  | 
6 | CCOc1nc([C@@H](CS(C)(=O)=O)n2c(=O)[nH]c3cc(Br)ccc32)ccc1OC [Ex. 129, (S)-5-bromo-1-(1-(6-ethoxy-5-methoxypyridin-2-yl)-2-(methylsulfonyl)ethyl)-1H-benzo[d]imidazol-2(3H)-one] | + | + | + |  |  | 
7 | CCOc1nc([C@@H](CS(C)(=O)=O)n2c(=O)n(C)c3cc(-c4cccc(C)c4F)ccc32)ccc1OC [Ex. 178, (S)-5-(2-fluoro-3-methylphenyl)-1-(1-(6-ethoxy-5-methoxypyridin-2-yl)-2-(methylsulfonyl)ethyl)-3-methyl-1H-benzo[d]imidazol-2(3H)-one] | + | + | + |  |  | 
8 | CCOc1nc([C@H](CS(C)(=O)=O)n2c(=O)n(CC)c3c(C)c(-c4ccc(F)cc4)cnc32)ccc1OC [Ex. 49, (R)-3-(1-(6-ethoxy-5-methoxypyridin-2-yl)-2-(methylsulfonyl)ethyl)-1-ethyl-6-(4-fluorophenyl)-7-methyl-1H-imidazo[4,5-b]pyridin-2(3H)-one] | − | − | − |  |  | 
9 | CCOc1nc([C@@H](CS(C)(=O)=O)n2c(=O)[nH]c3cc(-c4ccccn4)ccc32)ccc1OC [Ex. 194, (S)-1-(1-(6-ethoxy-5-methoxypyridin-2-yl)-2-(methylsulfonyl)ethyl)-5-(pyridin-2-yl)-1H-benzo[d]imidazol-2(3H)-one] | + | + | + |  |  | 
10 | CCOc1nc([C@@H](CS(C)(=O)=O)n2c(=O)[nH]c3cc(-c4c(F)cccc4OC)ccc32)ccc1OC [Ex. 190, (S)-5-(6-fluoro-2-methoxyphenyl)-1-(1-(6-ethoxy-5-methoxypyridin-2-yl)-2-(methylsulfonyl)ethyl)-1H-benzo[d]imidazol-2(3H)-one] | + | + | + |  |  | 
11 | CCOc1nc([C@@H](CS(C)(=O)=O)n2c(=O)[nH]c3cc(-c4ccccc4)ccc32)ccc1OC [Ex. 130, (S)-1-(1-(6-ethoxy-5-methoxypyridin-2-yl)-2-(methylsulfonyl)ethyl)-5-phenyl-1H-benzo[d]imidazol-2(3H)-one] | + | + | + |  |  | 
12 | CCOc1nc([C@@H](CS(C)(=O)=O)n2c(=O)[nH]c3cc(-c4cc(F)c(F)cc4F)ccc32)ccc1OC [Ex. 158, (S)-5-(2,4,5-trifluorophenyl)-1-(1-(6-ethoxy-5-methoxypyridin-2-yl)-2-(methylsulfonyl)ethyl)-1H-benzo[d]imidazol-2(3H)-one] | + | + | + |  |  | 
13 | CCOc1nc([C@@H](CS(C)(=O)=O)n2c(=O)[nH]c3cc(-c4cc(C)ccc4F)cnc32)ccc1OC [Ex. 113, (S)-6-(2-fluoro-5-methylphenyl)-3-(1-(6-ethoxy-5-methoxypyridin-2-yl)-2-(methylsulfonyl)ethyl)-1H-imidazo[4,5-b]pyridin-2(3H)-one] | + | + | + |  |  | 
14 | CCOc1nc([C@@H](CS(C)(=O)=O)n2c(=O)[nH]c3c(C)c(-c4ccc(F)cc4C)cnc32)ccc1OC [Ex. 35, (S)-6-(4-fluoro-2-methylphenyl)-3-(1-(6-ethoxy-5-methoxypyridin-2-yl)-2-(methylsulfonyl)ethyl)-7-methyl-1H-imidazo[4,5-b]pyridin-2(3H)-one] |  |  |  | 3.4 |  | 
15 | CCOc1nc([C@H](CS(C)(=O)=O)n2c(=O)[nH]c3c(C)c(-c4ccccc4C)cnc32)ccc1OC [Ex. 9, (R)-3-(1-(6-ethoxy-5-methoxypyridin-2-yl)-2-(methylsulfonyl)ethyl)-7-methyl-6-(o-methylphenyl)-1H-imidazo[4,5b]pyridin-2(3H)-one] |  |  |  | 318 |  | 
16 | CCOc1nc([C@H](CS(C)(=O)=O)n2c(=O)[nH]c3c(C)c(-c4ccccc4OC)cnc32)ccc1OC [Ex. 13, (R)-3-(1-(6-ethoxy-5-methoxypyridin-2-yl)-2-(methylsulfonyl)ethyl)-6-(2-methoxyphenyl)-7-methyl-1H-imidazo[4,5-b]pyridin-2(3H)-one] |  |  |  | 396 |  | 
17 | CCOc1nc([C@@H](CS(C)(=O)=O)n2c(=O)[nH]c3c(C)c(-c4ccccc4)cnc32)ccc1OC [Ex. 4, (S)-3-(1-(6-ethoxy-5-methoxypyridin-2-yl)-2-(methylsulfonyl)ethyl)-7-methyl-6-phenyl-1H-imidazo[4,5-b]pyridin-2(3H)-one] |  |  |  | 8.5 |  | 
18 | CCOc1nc([C@H](CS(C)(=O)=O)n2c(=O)[nH]c3c(C)c(-c4ccccc4F)cnc32)ccc1OC [Ex. 3, (R)-3-(1-(6-ethoxy-5-methoxypyridin-2-yl)-2-(methylsulfonyl)ethyl)-6-(2-fluorophenyl)-7-methyl-1H-imidazo[4,5-b]pyridin-2(3H)-one] |  |  |  | 415 |  | 
19 | CCOc1nc([C@@H](CS(C)(=O)=O)n2c(=O)[nH]c3c(C)c(-c4ccccc4F)cnc32)ccc1OC [Ex. 2, (S)-3-(1-(6-ethoxy-5-methoxypyridin-2-yl)-2-(methylsulfonyl)ethyl)-6-(2-fluorophenyl)-7-methyl-1H-imidazo[4,5-b]pyridin-2(3H)-one] |  |  |  | 3.4 | significantly enhanced inhibitory activity | significantly enhanced inhibitory activity
20 | CCOc1nc([C@@H](CS(C)(=O)=O)n2c(=O)[nH]c3c(C)c(-c4ccc(C)cc4C)cnc32)ccc1OC [Ex. 31, (S)-6-(2,4-dimethylphenyl)-3-(1-(6-ethoxy-5-methoxypyridin-2-yl)-2-(methylsulfonyl)ethyl)-7-methyl-1H-imidazo[4,5-b]pyridin-2(3H)-one] |  |  |  | 4.1 |  | 
21 | CCOc1nc([C@@H](CS(C)(=O)=O)n2c(=O)n(C)c3cc(-c4ccccc4C)cnc32)ccc1OC [Ex. 80, (S)-3-(1-(6-ethoxy-5-methoxypyridin-2-yl)-2-(methylsulfonyl)ethyl)-1-methyl-6-(o-methylphenyl)-1H-imidazo[4,5-b]pyridin-2(3H)-one] |  |  |  | 6.8 |  | 
22 | CCOc1nc([C@@H](CS(C)(=O)=O)n2c(=O)[nH]c3cc(-c4ccccc4C)cnc32)ccc1OC [Ex. 79, (S)-3-(1-(6-ethoxy-5-methoxypyridin-2-yl)-2-(methylsulfonyl)ethyl)-6-(o-methylphenyl)-1H-imidazo[4,5-b]pyridin-2(3H)-one] |  |  |  | 4.7 |  | 
23 | CCOc1nc([C@@H](CS(C)(=O)=O)n2c(=O)[nH]c3c(C)c(-c4cc(F)ccc4F)cnc32)ccc1OC [Ex. 27, (S)-6-(2,5-difluorophenyl)-3-(1-(6-ethoxy-5-methoxypyridin-2-yl)-2-(methylsulfonyl)ethyl)-7-methyl-1H-imidazo[4,5-b]pyridin-2(3H)-one] |  |  |  | 3.7 |  | 
